# Tested on: CYP1A2, 2B6, and 3A4
# Assay: in vitro CYP induction
# Format: in vitro ADME
# Conditions: up to 10 μM
structure (smiles),measurement,value
CCCCOc1nc(N)c2[nH]cc(Cc3ccc(CN4CCCC4)cc3)c2n1 [Compound 4],"in vitro induction of CYP1A2, 2B6, and 3A4",not an in vitro inducer

# — patent US12263172B2, “Toll-like receptor agonists for use in the treatment of hepatitis b” (priority 2019, dated 2025)
